We go through two compounds from ChEMBL document CHEMBL3804811 (J Med Chem, 2016).

pIC50: −log10 of the molar value. ≈ marks a conversion by molar mass, not a printed value.

Series [1] is described as follows: Antiproliferative activity against human KARPAS299 cells incubated for 72 hrs by cell titer-glo assay. To be noted: KARPAS-299, 72 h. A general note: Cellular ATP, detected with luciferase, serves as a proxy for viable cell number.
The nature of series [2]: Solubility of compound at pH 7 buffer. The format is physicochemical.
A short description of series [3]: Apparent permeability from apical to basolateral side in human Caco2 cells at 2.5 mg/ml after 2 hrs by reversed-phase HPLC method. The conditions noted are these: Caco-2. Format: ADME, cell-based.
Series [4] can be described thus: Apparent permeability from basolateral to apical side in human Caco2 cells at 2.5 mg/ml after 2 hrs by reversed-phase HPLC method. Format: ADME, cell-based. To be noted: Caco-2.
Series [5] is described as follows: Intrinsic clearance in human liver microsomes at […] preincubated for 5 mins followed by NADPH addition measured after 5 to 30 mins by LC-MS/MS analysis. The format is ADME. To be noted: read-out: CLH.
The nature of series [6]: Intrinsic clearance in rat hepatocytes at […] after 10 to 90 mins by LC-MS/MS analysis. The format is ADME, cell-based, Hepatocyte. The conditions noted are these: read-out: CLH.
A short description of series [7]: Cmax in Harlan nu/nu mouse at 10 mg/kg, iv administered as single dose by LC-MS/MS analysis. Also on record: dose 10 mg/kg, route intravenous. The format is ADME, organism-based. The conditions noted are these: in vivo.
A short description of series [8]: AUC (infinity) in Harlan nu/nu mouse at 10 mg/kg, iv administered as single dose by LC-MS/MS analysis. Format: ADME, organism-based. Also on record: dose 10 mg/kg, time infinity, route intravenous. To be noted: in vivo.
A short description of series [9]: Clearance in Harlan nu/nu mouse at 10 mg/kg, iv administered as single dose by LC-MS/MS analysis. The format is ADME, organism-based. To be noted: in vivo.
Series [10] in a line: Volume of distribution at steady state in Harlan nu/nu mouse at 10 mg/kg, iv administered as single dose by LC-MS/MS analysis. The conditions noted are these: in vivo.
Series [11] is described as follows: Half life in Harlan nu/nu mouse at 10 mg/kg, iv administered as single dose by LC-MS/MS analysis. Format: ADME, organism-based. The conditions noted are these: in vivo.
The nature of series [12]: Cmax in Harlan nu/nu mouse at 10 mg/kg, po administered as single dose by LC-MS/MS analysis. Format: ADME, organism-based. Also on record: dose 10 mg/kg, route oral. To be noted: in vivo.
Series [13] is described as follows: Tmax in Harlan nu/nu mouse at 10 mg/kg, po administered as single dose by LC-MS/MS analysis. To be noted: in vivo. The format is ADME, organism-based.
Series [14] in a line: AUC (infinity) in Harlan nu/nu mouse at 10 mg/kg, po administered as single dose by LC-MS/MS analysis. Format: ADME, organism-based. On the set-up: dose 10 mg/kg, route oral, time infinity. To be noted: in vivo.
A short description of series [15]: Half life in Harlan nu/nu mouse at 10 mg/kg, po administered as single dose by LC-MS/MS analysis. The conditions noted are these: in vivo. The format is ADME, organism-based.
Series [16] is described as follows: Oral bioavailability in Harlan nu/nu mouse at 10 mg/kg administered as single dose by LC-MS/MS analysis. The conditions noted are these: in vivo. The format is ADME, organism-based.
In a further series the target is Insulin receptor (Homo sapiens, UniProt P06213). The series is described as follows: Inhibition of IR (unknown origin) in presence of gamma33-ATP.
In series [17] the target is ALK tyrosine kinase receptor (Homo sapiens, UniProt Q9UM73).
Sequence of ALK tyrosine kinase receptor (Q9UM73 whole entry): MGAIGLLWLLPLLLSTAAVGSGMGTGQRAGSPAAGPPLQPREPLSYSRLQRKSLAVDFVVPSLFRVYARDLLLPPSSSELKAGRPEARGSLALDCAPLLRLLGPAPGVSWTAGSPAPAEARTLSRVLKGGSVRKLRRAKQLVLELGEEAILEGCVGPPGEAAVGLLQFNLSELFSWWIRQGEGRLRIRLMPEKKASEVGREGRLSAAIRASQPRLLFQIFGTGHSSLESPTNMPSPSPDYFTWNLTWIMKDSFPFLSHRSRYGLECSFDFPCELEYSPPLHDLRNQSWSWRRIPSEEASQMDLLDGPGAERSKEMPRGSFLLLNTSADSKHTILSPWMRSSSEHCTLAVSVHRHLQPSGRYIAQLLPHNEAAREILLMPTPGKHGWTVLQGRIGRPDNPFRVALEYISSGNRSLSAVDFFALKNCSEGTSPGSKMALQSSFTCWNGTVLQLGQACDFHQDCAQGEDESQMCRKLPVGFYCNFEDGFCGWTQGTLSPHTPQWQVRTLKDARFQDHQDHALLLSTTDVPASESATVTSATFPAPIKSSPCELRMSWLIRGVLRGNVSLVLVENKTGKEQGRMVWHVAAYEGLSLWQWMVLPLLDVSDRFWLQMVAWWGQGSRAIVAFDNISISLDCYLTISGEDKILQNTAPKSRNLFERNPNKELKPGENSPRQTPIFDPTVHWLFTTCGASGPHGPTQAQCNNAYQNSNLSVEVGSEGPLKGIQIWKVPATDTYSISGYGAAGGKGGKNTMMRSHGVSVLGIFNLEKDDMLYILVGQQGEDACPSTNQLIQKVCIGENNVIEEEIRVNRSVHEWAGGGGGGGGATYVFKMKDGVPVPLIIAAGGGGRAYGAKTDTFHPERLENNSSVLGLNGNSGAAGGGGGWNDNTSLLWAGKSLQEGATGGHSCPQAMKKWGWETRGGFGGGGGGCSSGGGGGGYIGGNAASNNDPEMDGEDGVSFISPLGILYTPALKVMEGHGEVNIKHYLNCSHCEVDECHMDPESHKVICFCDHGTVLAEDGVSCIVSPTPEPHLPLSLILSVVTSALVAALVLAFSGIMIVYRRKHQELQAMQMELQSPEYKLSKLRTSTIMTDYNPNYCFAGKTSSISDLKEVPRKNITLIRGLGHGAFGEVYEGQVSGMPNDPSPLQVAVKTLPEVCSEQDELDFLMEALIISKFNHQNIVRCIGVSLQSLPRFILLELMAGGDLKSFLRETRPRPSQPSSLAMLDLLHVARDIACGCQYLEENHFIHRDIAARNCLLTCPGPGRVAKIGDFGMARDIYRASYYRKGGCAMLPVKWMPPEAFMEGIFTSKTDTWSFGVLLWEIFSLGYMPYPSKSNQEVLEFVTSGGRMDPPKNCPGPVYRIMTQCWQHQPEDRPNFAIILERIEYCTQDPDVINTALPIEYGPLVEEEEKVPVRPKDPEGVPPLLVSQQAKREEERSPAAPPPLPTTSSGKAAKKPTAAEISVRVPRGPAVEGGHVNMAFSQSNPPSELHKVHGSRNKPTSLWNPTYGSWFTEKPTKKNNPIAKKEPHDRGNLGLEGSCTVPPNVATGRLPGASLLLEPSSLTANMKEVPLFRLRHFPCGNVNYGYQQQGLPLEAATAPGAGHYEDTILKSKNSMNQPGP
Description: Inhibition of recombinant ALK (unknown origin) in presence of gamma33-ATP

Sequence of Insulin receptor (P06213 28-758 limits assumed): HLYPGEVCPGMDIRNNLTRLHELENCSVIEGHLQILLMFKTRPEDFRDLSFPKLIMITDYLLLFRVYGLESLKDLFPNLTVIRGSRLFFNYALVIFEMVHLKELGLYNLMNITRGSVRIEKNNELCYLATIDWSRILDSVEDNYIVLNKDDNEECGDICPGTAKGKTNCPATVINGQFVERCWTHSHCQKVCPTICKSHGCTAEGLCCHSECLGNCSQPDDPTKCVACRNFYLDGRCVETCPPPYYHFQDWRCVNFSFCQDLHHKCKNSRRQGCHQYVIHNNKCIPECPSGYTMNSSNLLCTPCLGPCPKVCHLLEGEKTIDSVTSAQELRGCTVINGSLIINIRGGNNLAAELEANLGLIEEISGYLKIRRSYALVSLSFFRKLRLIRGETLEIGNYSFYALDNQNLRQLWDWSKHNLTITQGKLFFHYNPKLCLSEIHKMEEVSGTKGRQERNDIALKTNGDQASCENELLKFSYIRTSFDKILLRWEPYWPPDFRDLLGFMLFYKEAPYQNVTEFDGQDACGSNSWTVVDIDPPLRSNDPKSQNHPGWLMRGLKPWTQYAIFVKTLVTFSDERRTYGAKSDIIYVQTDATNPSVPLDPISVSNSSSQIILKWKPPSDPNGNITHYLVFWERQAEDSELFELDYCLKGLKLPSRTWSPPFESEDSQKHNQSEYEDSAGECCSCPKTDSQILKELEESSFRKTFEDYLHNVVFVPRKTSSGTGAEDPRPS
Sequence of Insulin receptor (P06213 763-1382 limits assumed): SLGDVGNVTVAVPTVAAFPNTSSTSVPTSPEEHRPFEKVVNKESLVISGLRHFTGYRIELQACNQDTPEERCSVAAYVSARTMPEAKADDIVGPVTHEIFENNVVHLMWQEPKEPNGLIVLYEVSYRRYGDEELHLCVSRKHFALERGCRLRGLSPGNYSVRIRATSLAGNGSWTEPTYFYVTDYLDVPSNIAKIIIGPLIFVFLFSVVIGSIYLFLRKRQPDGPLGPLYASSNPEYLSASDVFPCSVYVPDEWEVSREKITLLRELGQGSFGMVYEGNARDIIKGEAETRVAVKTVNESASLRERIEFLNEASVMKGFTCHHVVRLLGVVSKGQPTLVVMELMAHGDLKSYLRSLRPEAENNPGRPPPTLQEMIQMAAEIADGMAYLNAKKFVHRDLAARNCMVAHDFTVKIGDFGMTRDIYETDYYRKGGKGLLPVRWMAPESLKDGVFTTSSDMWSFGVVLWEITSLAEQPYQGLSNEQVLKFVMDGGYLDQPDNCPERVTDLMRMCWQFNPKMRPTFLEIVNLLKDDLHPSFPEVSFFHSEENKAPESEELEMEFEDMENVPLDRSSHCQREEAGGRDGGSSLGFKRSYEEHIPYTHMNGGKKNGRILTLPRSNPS

With `O=C(Nc1n[nH]c2ccc(Cc3cc(F)cc(F)c3)cc12)c1ccc(N2CCNCC2)cc1NC1CCOCC1`, the pIC50 (commonly −log10 of the IC50, conventionally taken in molar units) is 7.89 in [1], 7.39 at Insulin receptor and 8.52 in series [17]. In addition, in series [2], the solubility (commonly how much of the substance goes into solution per volume) came to 103 µM (≈ 56.3 µg/mL). Further, in series [3], the Papp A→B (usually the apparent permeability from the apical to the basolateral side of a cell layer) at 2 h, 2.5 mg/ml worked out at 0.6 ×10⁻⁶ cm/s. Moreover, the Papp B→A (usually the apparent permeability from the basolateral to the apical side of a cell layer) at 2 h, 2.5 mg/ml in series [4] is 4.5 ×10⁻⁶ cm/s. Besides, the CLint scaled in [5] came to 7.5 mL/min/kg; in series [6], 52 mL/min/kg. Besides, the Cmax (as a rule, the maximum level reached in the sampled fluid or tissue) came out at 40.5 µM in series [7] and 0.081 µM in series [12]. Moreover, the results for the total exposure AUC(0-inf) in series [8] and in series [14] were 42.2 µM·h and 1.33 µM·h, respectively. In series [9], the clearance (usually the rate of elimination divided by the concentration) came to 7.01 mL/min/kg. Moreover, in series [10], the volume of distribution (Vd) (in general, a proportionality between amount in the body and measured concentration, not a real space) came out at 1.4 L/kg. In addition, the half-life (usually how long it takes for the measured level to halve) in [11] was 4.76 h; in [15], 9.63 h. Further, the Tmax (commonly the time from dosing to the highest level) in series [13] amounted to 6 h. In series [16], the bioavailability (commonly the share of a dose that reaches the circulation, judged against a reference dose that is usually intravenous) turned out to be 2.9%.
For the compound `CN1CCC(Oc2ccc(C(=O)Nc3n[nH]c4ccc(Cc5cc(F)cc(F)c5)cc34)c(NC3CCOCC3)c2)CC1`, the pIC50 in [1] was 7.37; on Insulin receptor, 6.71; in series [17], 8.05. Further, in [2], the solubility stood at 59 µM (≈ 34 µg/mL). The Papp A→B at 2 h, 2.5 mg/ml in series [3] was 0.3 ×10⁻⁶ cm/s. In addition, in series [4], the Papp B→A at 2 h, 2.5 mg/ml is 2 ×10⁻⁶ cm/s. The CLint scaled stood at 12 mL/min/kg in series [5] and 49 mL/min/kg in [6]. Also, the Cmax in series [7] worked out at 6.93 µM; in [12] it was 0.8 µM. The AUC(0-inf) (commonly the area under the concentration-time curve extrapolated to infinity) came out at 33.1 µM·h in series [8] and 11 µM·h in series [14]. Besides, the clearance in series [9] was determined as 8.16 mL/min/kg. The Vd in series [10] turned out to be 2.62 L/kg. Further, the results for the half-life in series [11] and in series [15] were 4.94 h and 4.08 h, respectively. Further, the Tmax in series [13] was 6 h. For the same compound, in series [16], the bioavailability turned out to be 29.3%.
